US20110028509A1, “Sulfonamides” (MERCK SERONO SA, priority 2008, published 2011)

Target: T1, CXCR3 (Homo sapiens, UniProt P49682)
T1 sequence (P49682 1-368): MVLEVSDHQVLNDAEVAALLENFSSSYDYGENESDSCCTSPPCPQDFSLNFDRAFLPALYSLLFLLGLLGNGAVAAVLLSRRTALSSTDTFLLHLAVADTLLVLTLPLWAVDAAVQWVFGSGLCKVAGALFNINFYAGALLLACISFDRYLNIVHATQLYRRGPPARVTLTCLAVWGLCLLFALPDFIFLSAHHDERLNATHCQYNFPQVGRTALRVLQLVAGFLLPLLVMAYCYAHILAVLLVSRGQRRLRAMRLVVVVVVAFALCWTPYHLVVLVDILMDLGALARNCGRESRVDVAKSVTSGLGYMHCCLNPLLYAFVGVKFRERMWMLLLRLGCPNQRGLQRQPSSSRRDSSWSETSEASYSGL
Test: CXCR3 Ca2+ mobilization (FLIPR), stable hCXCR3-CHO cell line, I-TAC stimulated
Assay type: cell-based
Set-up: host or cells: CHO cells stably expressing hCXCR3
Details: hCXCR3-CHO cells, I-TAC 100 nM stimulated Ca2+ response; read-out: Ca-ITAC
Procedure: Human chinese hamster ovary (CHO) cell line stably expressing hCXCR3 was purchased from Euroscreen (Belgium) and culture in HAM's F12 (Invitrogen) containing 10% heat inactivated fetal calf serum (Cancerra, Australia), 50 units ml−1 penicillin, 50 μml−1 streptomycin, (Invitrogen, USA) and 400 μg/ml geneticin (G418) (Calbiochem, San Diego), according to the manufacturer.
CXCR3Ca^2+ mobilization was measured using a stable hCXCR3—CHO cell line and a microtiter-plate based assay using FLIPR^TETRA™ (Molecular Devices). In more detail, cells were harvested and plated into black 384-well plates (Becton-Dickinson) at a density of 15 000 cells per well and grown in the incubator for 18 hours. On the next day the media was aspirated and replaced with the cell loading buffer (HBSS—(Invitrogen) based buffer containing calcium indicator and signal enhancer from a commercial Ca2+ assay kit (Becton Dickinson). The plates were incubated for 60 minutes in the incubator, the test compounds were added and the plates equilibrated for 20 minutes at room temperature.
Plates were placed into FLIPR and the CXCR3 agonist (I-TAC, 100 nM) stimulated fluorescence change was quantitated. The activity of CXCR3 antagonists was determined as percent of the CXCR3 ligand I-TAC in the absence of the test compounds (=100% activity).

Compound	IC50
O=S(=O)(c1ccc(Cl)cc1)N(Cc1ccc(-c2nnn[nH]2)cc1)Cc1ccccc1-c1ccccc1 [Example 103]	3.45 µM
CC(CNC(=O)c1ccc(CN(Cc2cccnc2)S(=O)(=O)c2ccc(C#N)cc2)cc1)c1ccccc1 (stereo not drawn) [Example 112]	1.25 µM
CCOc1ccc(C2(NC(=O)c3ccc(CN(Cc4ccccn4)S(=O)(=O)c4ccc(OCC)cc4)cc3)CC2)cc1 [Example 130]	3 µM
Cc1cc(S(=O)(=O)N(Cc2ccc(-c3nnn[nH]3)cc2)Cc2ccccn2)c(F)cc1Cl [Example 79]	4 µM
O=C(NCc1ccccc1)c1ccc(CN(Cc2ccc(F)cc2)S(=O)(=O)c2ccc(Cl)cc2)cc1 [Example 34, 4-{[[(4-chlorophenyl)sulfonyl](4-fluorobenzyl)amino]methyl}-N-phenyl methyl benzamide]	1.8 µM
COc1ccc(S(=O)(=O)N(Cc2ccccc2)Cc2ccc(C(=O)NCc3ccccc3)cc2)cc1 [Example 31]	1.9 µM
O=C(NCc1ccccc1)c1ccc(CN(Cc2ccccc2)S(=O)(=O)c2ccc(F)cc2)cc1 [Example 32]	3.9 µM
CCS(=O)(=O)NC(=O)c1ccc(CN(Cc2ccccn2)S(=O)(=O)c2ccc(Cl)cc2)cc1 [Example 55, N-(ethanesulfonyl)-4-{[[(4-chlorophenyl)sulfonyl](pyridin-2-yl-methyl)amino]methyl}benzamide]	11 µM
CCOc1ccc(S(=O)(=O)N(Cc2ccc(C(=O)NCCc3ccc(S(N)(=O)=O)cc3)cc2)Cc2cccnc2)cc1 [Example 95]	2 µM
CCOc1ccc(S(=O)(=O)N(Cc2ccc(C(=O)N[C@H]3[C@@H]4CN(C(=O)c5ccc(OC(F)(F)F)cc5)C[C@@H]43)cc2)Cc2ccccn2)cc1 [Example 117, 4-{[(4-Ethoxy-benzenesulfonyl)-pyridin-2-ylmethyl-amino]-methyl}-N-[(1S,5R,6S)-3-(4-trifluoromethoxy-benzoyl)-3-aza-bicyclo[3.1.0]hex-6-yl]-benzamide]	0.8 µM
CS(=O)(=O)NC(=O)c1ccc(CN(Cc2ccccn2)S(=O)(=O)c2ccc(Cl)cc2)cc1 [Example 48, N-(methanesulfonyl)-4{[[(4-chlorophenyl)sulfonyl](pyridin-2-ylmethyl)amino]methyl}benzamide]	8.3 µM
O=C(N[C@H](C(=O)O)c1ccccc1)c1ccc(CN(Cc2ccccn2)S(=O)(=O)c2ccc(Cl)cc2)cc1 [Example 152]	0.75 µM
O=S(=O)(c1ccc(Cl)cc1Cl)N(Cc1ccc(-c2nnn[nH]2)cc1)Cc1ccccn1 [Example 78]	3 µM
CCOc1ccc(S(=O)(=O)N(Cc2ccc(C(=O)NCC(C)c3ccccc3)cc2)Cc2ccccn2)cc1 (stereo not drawn) [Example 86]	1.7 µM
CCOc1ccc(S(=O)(=O)N(Cc2ccc(C(=O)NC3(c4cccc(C#N)c4)CC3)cc2)Cc2ccccn2)cc1 [Example 85]	4 µM
O=C(NC(C(=O)O)c1ccccc1)c1ccc(CN(Cc2ccccn2)S(=O)(=O)c2ccc(Cl)cc2)cc1 (stereo not drawn) [Example 151]	0.15 µM
O=C(NCc1ccccc1)c1ccc(CN(Cc2ccccc2)S(=O)(=O)c2ccc(Cl)nc2)cc1 [Example 36]	0.15 µM
CCOc1ccc(S(=O)(=O)N(Cc2ccc(C(=O)N[C@H]3[C@@H]4CN(C(=O)c5ccc(OC(F)(F)F)cc5)C[C@@H]43)cc2)Cc2cccnc2)cc1 [Example 116]	2 µM
O=S(=O)(c1ccc(Cl)cc1)N(Cc1ccc(-c2nnn[nH]2)cc1)Cc1ccc(Cl)cc1F [Example 70, 4-chloro-N-(2-fluoro-4-chlorobenzyl)-N-[4-(2H-tetrazol-5yl)benzyl]benzene sulfonamide]	3 µM
O=[N+]([O-])c1ccc(S(=O)(=O)N(Cc2ccc(-c3nnn[nH]3)cc2)Cc2ccccn2)cc1 [Example 140]	2 µM
O=C(NC1(c2ccc(OC(F)(F)F)cc2)CC1)c1ccc(CN(Cc2ccccn2)S(=O)(=O)c2ccc(Cl)cc2)cc1 [Example 131]	5 µM
CCOc1ccc(C2(NC(=O)c3ccc(CN(Cc4ccccn4)S(=O)(=O)c4ccc(Cl)cc4)cc3)CC2)cc1 [Example 128]	0.85 µM
CN(C)c1ccc(CNC(=O)c2ccc(CN(Cc3ccccn3)S(=O)(=O)c3ccc(C#N)cc3)cc2)cn1 [Example 148]	3 µM
CC(C)(C)c1ccc(S(=O)(=O)N(Cc2ccc(-c3nnn[nH]3)cc2)Cc2ccccn2)cc1 [Example 141]	3 µM
O=C(N[C@@H](Cc1ccc(O)cc1)C(=O)O)c1ccc(CN(Cc2ccccn2)S(=O)(=O)c2ccc(Cl)cc2)cc1 [Example 154]	4 µM
O=C(NS(=O)(=O)C1CC1)c1ccc(CN(Cc2ccccn2)S(=O)(=O)c2ccc(Cl)cc2)cc1 [Example 49, N-(cyclopropanesulfonyl)-4-{[[(4-chlorophenyl)sulfonyl](pyridin-2-ylmethyl)amino]methyl}benzamide]	5.6 µM
O=C(NS(=O)(=O)c1cccnc1)c1ccc(CN(Cc2ccccn2)S(=O)(=O)c2ccc(Cl)cc2)cc1 [Example 52, N-(3-pyridylsulfonyl)-4-{[[(4-chlorophenyl)sulfonyl](pyridin-2-ylmethyl)amino]methyl}benzamide]	0.285 µM

Results, then the compound that gave them:

IC50	Compound
9 µM	CCOc1ccc(S(=O)(=O)N(Cc2ccc(N3CCOCC3)cc2)Cc2ccccn2)cc1 [Example 269]
2.8 µM	O=S(=O)(c1ccc(Cl)cc1)N(Cc1cccc(-c2nnn[nH]2)c1)Cc1ccccn1 [Example 228]
10 µM	Cc1cccc(S(=O)(=O)N(Cc2ccc(-c3nnn[nH]3)cc2)Cc2ccccn2)c1 [Example 311]
3 µM	CC(C)(Cc1ccccc1)N(Cc1ccc(-c2nnn[nH]2)cc1)S(=O)(=O)c1ccc(Cl)cc1 [Example 236]
2.01 µM	O=S(=O)(c1ccc(Cl)cc1)N(CCc1ccccc1)Cc1ccc(-c2nnn[nH]2)cc1 [Example 204]
1.95 µM	CC(c1ccc(-c2nnn[nH]2)cc1)N(Cc1ccccc1)S(=O)(=O)c1ccc(Cl)cc1 (stereo not drawn) [Example 171]
4 µM	N#Cc1ccc(CCN(Cc2ccccn2)S(=O)(=O)c2ccc(Cl)cc2)cc1 [Example 286, 4-Chloro-N-[2-(4-cyano-phenyl)-ethyl]-N-pyridin-2-ylmethyl-benzenesulfonamide]
13 µM	N#Cc1ccccc1CN(Cc1ccccn1)S(=O)(=O)c1ccc(Cl)cc1 [Example 196]
3.1 µM	N#Cc1ccc(CN(CCCc2ccccc2)S(=O)(=O)c2ccc(Cl)cc2)cc1 [Example 198]
13 µM	CCOC(=O)c1ccc(CN(Cc2ccccn2)S(=O)(=O)c2ccc(OCC)cc2)cc1 [Example 191]
5 µM	N#Cc1ccc(CN(Cc2ccccn2)S(=O)(=O)c2ccccc2Cl)cc1 [Example 186]
7 µM	CCOc1ccc(S(=O)(=O)N(Cc2ccc(C(=O)O)c(OC)c2)Cc2ccccn2)cc1 [Example 346]
7 µM	Cc1ccccc1S(=O)(=O)N(Cc1ccc(C#N)cc1)Cc1ccccn1 [Example 287]
5.5 µM	N#Cc1ccc(CN(C2CCc3cc(Cl)ccc32)S(=O)(=O)c2ccc(Cl)cc2)cc1 (stereo not drawn) [Example 299]
1.5 µM	Cc1ccc(S(=O)(=O)N(Cc2ccc(C#N)cc2)Cc2ccccn2)cc1 [Example 174]
10 µM	N#Cc1ccc(CN(C(=O)c2ccccn2)S(=O)(=O)c2ccc(Cl)cc2)cc1 [Example 279, 4-Chloro-N-(4-cyano-benzyl)-N-(pyridine-2-carbonyl)-benzenesulfonamide]
6 µM	CCOc1ccc(S(=O)(=O)N(Cc2ccc(Oc3ccncc3)cc2)Cc2ccccn2)cc1 [Example 270]
0.4 µM	N#Cc1ccc(CN(Cc2ccccn2)S(=O)(=O)c2ccccc2[N+](=O)[O-])cc1 [Example 173]
4.5 µM	CCOc1ccc(S(=O)(=O)N(Cc2ccc(C(=O)NCC(C)c3ccccc3)cc2)Cc2cccnc2)cc1 (stereo not drawn) [Example 206]
10 µM	O=C(NC1(c2ccccc2)CC1)c1ccc(CN(Cc2ccc3cccnc3n2)S(=O)(=O)c2ccc(Cl)cc2)cc1 [Example 330]
9.5 µM	O=S(=O)(c1ccccc1-c1ccccc1)N(Cc1ccc(-c2nnn[nH]2)cc1)Cc1ccccn1 [Example 253]
1.9 µM	CCOC(=O)c1ccc(CN(Cc2cccnc2)S(=O)(=O)c2ccc(C#N)cc2)cc1 [Example 156]
1.45 µM	CC(C)(C)c1ccc(S(=O)(=O)N(Cc2ccc(C#N)cc2)Cc2ccccn2)cc1 [Example 177]
0.7 µM	N#Cc1ccc(CN(Cc2ccccn2)S(=O)(=O)c2ccc([N+](=O)[O-])cc2)cc1 [Example 172]
1.2 µM	N#Cc1cccc(CN(Cc2ccccc2)S(=O)(=O)c2ccc(Cl)cc2)c1 [Example 230]
1.1 µM	O=S(=O)(c1cccc(Oc2ccccc2)c1)N(Cc1ccc(-c2nnn[nH]2)cc1)Cc1ccccn1 [Example 165]
1.6 µM	O=S(=O)(c1ccc(Cl)cc1)N(Cc1ccccc1)Cc1ccccc1-c1nnn[nH]1 [Example 229]
